Each compound was assayed on Human Monocytic Leukemia MV4-11 (assay: Cell proliferation experiment (Alarm blue, 72 h, EC50)). Conditions: Homo sapiens, MV4-11, MV4;11 cells.
Type: cell-based
Protocol: (2.1) Cell Proliferation Experiment:
Reagents: RPMI-1640 medium, McCoy's 5A medium, IMDM medium, MEM medium, L-15 medium, fetal bovine serum, Penicillin-Streptomycin double antibody, trypsin, etc., 2-mercaptoethanol, NEAA, pyruvate, etc.
The cells were cultured in conventional ways, and the cells should be passed at least for at least 2 generations before plating. Cells at the logarithmic growth phase are collected, prepared into single cell suspensions and counted. The concentration of cells was adjusted to the desired concentration, and cells were inoculated into a 96-well cell culture plate at 100 μl per well. 100 μL of complete medium of the test compound were added to each well, set up 2 duplicates for each concentration, and diluted with a 5-fold gradient, and continue to culture for 72 h. All cells were subjected to EC50 test for corresponding samples.
The fluorescence intensity of each well was detected using the Alarm blue method, and EC50 was calculated.
EC50 was calculated according to the following formula:
Y=Max+(Min−Max)/[1+(X/EC50)×Slope]
wherein Min, Max and Slope represent the minimum, maximum and slope respectively.

Row | EC50 [nM] | Structure (SMILES)
1 | 10 to 100 | CC[C@@H]1C(=O)N(C)c2cnc(Nc3ccc(C(=O)NCCNCCC(=O)Nc4cccc5c4CN(C4CCC(=O)NC4=O)C5=O)cc3OC)nc2N1C1CCCC1 (stereo partly shown) [UB-180682]
2 | 10 to 100 | COc1cc(C(=O)NCCOCCOCCOCCNCCC(=O)Nc2cccc3c2CN(C2CCC(=O)NC2=O)C3=O)ccc1Nc1ncc2c(n1)N(C(C)C)[C@H](C)C(=O)N2C (stereo partly shown) [UB-180702]
3 | 100 to 1000 | O=C1CCC(N2Cc3c(NC(=O)CCNCCn4cc(CNC(=O)[C@]5(Cc6cccc(Nc7nccs7)n6)CC[C@@H](Oc6cccc(Cl)c6F)CC5)nn4)cccc3C2=O)C(=O)N1 (stereo partly shown) [UB-180729]
4 | 10 to 100 | CC[C@@H]1C(=O)N(C)c2cnc(Nc3ccc(C(=O)NCCOCCOCCOCCNCCCCCC(=O)Nc4cccc5c4CN(C4CCC(=O)NC4=O)C5=O)cc3OC)nc2N1C1CCCC1 (stereo partly shown) [UB-180649]
5 | 100 to 1000 | O=C1CCC(N2Cc3c(NC(=O)CNCCOCCN4CCC(NC(=O)[C@]5(Cc6cccc(Nc7nccs7)n6)CC[C@@H](Oc6cccc(Cl)c6F)CC5)CC4)cccc3C2=O)C(=O)N1 (stereo partly shown) [UB-180736]
6 | 10 to 100 | CC[C@@H]1C(=O)N(C)c2cnc(Nc3ccc(C(=O)NCCOCCNCCC(=O)Nc4cccc5c4CN(C4CCC(=O)NC4=O)C5=O)cc3OC)nc2N1C1CCCC1 (stereo partly shown) [UB-180696]
7 | > 1000 | Cc1ncsc1-c1ccc(CNC(=O)[C@@H]2C[C@@H](O)CN2C(=O)[C@@H](NC(=O)CNCCOCCOCCOCCNC(=O)[C@]2(Cc3cccc(Nc4nccs4)n3)CC[C@@H](Oc3cccc(Cl)c3F)CC2)C(C)(C)C)cc1 [UB-180783]
8 | 100 to 1000 | CC[C@@H]1C(=O)N(C)c2cnc(Nc3ccc(C(=O)NCCNCC(=O)Nc4cccc5c4CN(C4CCC(=O)NC4=O)C5=O)cc3OC)nc2N1C1CCCC1 (stereo partly shown) [UB-180694]
9 | > 1000 | O=C1CCC(N2Cc3c(NC(=O)CCCNCCOCCOCCOCCNC(=O)[C@]4(Cc5cccc(Nc6nccs6)n5)CC[C@@H](Oc5cccc(Cl)c5F)CC4)cccc3C2=O)C(=O)N1 (stereo partly shown) [UB-180779]
10 | 100 to 1000 | O=C1CCC(N2Cc3c(NC(=O)CCCCCNCCOCCOCCOCCNC(=O)[C@]4(Cc5cccc(Nc6nccs6)n5)CC[C@@H](Oc5cccc(Cl)c5F)CC4)cccc3C2=O)C(=O)N1 (stereo partly shown) [UB-180771]
11 | 10 to 100 | CC[C@@H]1C(=O)N(C)c2cnc(Nc3ccc(C(=O)NCCNCCCC(=O)Nc4cccc5c4CN(C4CCC(=O)NC4=O)C5=O)cc3OC)nc2N1Cc1ccc(Br)cc1 (stereo partly shown) [UB-180690]
12 | > 1000 | Cc1ncsc1-c1ccc(CNC(=O)[C@@H]2C[C@@H](O)CN2C(=O)[C@@H](NC(=O)COCCOCCNC(=O)[C@]2(Cc3cccc(Nc4nccs4)n3)CC[C@@H](Oc3cccc(Cl)c3F)CC2)C(C)(C)C)cc1 [UB-180587]
13 | 10 to 100 | CC[C@@H]1C(=O)N(C)c2cnc(Nc3ccc(C(=O)NCc4cn(CCNCCCC(=O)Nc5cccc6c5CN(C5CCC(=O)NC5=O)C6=O)nn4)cc3OC)nc2N1Cc1ccc(Br)cc1 (stereo partly shown) [UB-180676]
14 | 100 to 1000 | Cc1ncsc1-c1ccc(CNC(=O)[C@@H]2C[C@@H](O)CN2C(=O)[C@@H](NC(=O)CCOCCCOCCOCCNC(=O)[C@]2(Cc3cccc(Nc4nccs4)n3)CC[C@@H](Oc3cccc(Cl)c3F)CC2)C(C)(C)C)cc1 [UB-180600]
15 | 100 to 1000 | O=C1CCC(N2Cc3c(NC(=O)CNCCOCCN4CCN(CCNC(=O)c5ccc(Nc6ncc7c(n6)-c6ccc(Cl)cc6C(c6c(F)cccc6F)=NC7)cc5)CC4)cccc3C2=O)C(=O)N1 (stereo not shown) [UB-180811]
16 | 10 to 100 | CC[C@@H]1C(=O)N(C)c2cnc(Nc3ccc(C(=O)NCCOCCOCCOCCNCCC(=O)Nc4cccc5c4CN(C4CCC(=O)NC4=O)C5=O)cc3OC)nc2N1C(C)C (stereo partly shown) [UB-180710]
17 | > 1000 | Cc1ncsc1-c1ccc(CNC(=O)[C@@H]2C[C@@H](O)CN2C(=O)[C@@H](NC(=O)CCCNCCn2cc(COCCOCCOCCNC(=O)[C@]3(Cc4cccc(Nc5nccs5)n4)CC[C@@H](Oc4cccc(Cl)c4F)CC3)nn2)C(C)(C)C)cc1 [UB-180790]
18 | > 1000 | CC[C@@H]1c2c(C#N)ncn2-c2cnc(Nc3ccc(C(=O)NCCC(=O)N[C@H](C(=O)N4C[C@H](O)C[C@H]4C(=O)NCc4ccc(-c5scnc5C)cc4)C(C)(C)C)cc3OC)nc2N1C1CCCC1 [UB-180623]
19 | > 1000 | CC[C@@H]1C(=O)N(C)c2cnc(Nc3ccc(C(=O)NCCNCCC(=O)Nc4cccc5c4CN(C4CCC(=O)NC4=O)C5=O)cc3OC)nc2N1Cc1ccc(Br)cc1 (stereo partly shown) [UB-180683]
20 | 10 to 100 | CC[C@@H]1C(=O)N(C)c2cnc(Nc3ccc(C(=O)NCCOCCNCCCC(=O)Nc4cccc5c4CN(C4CCC(=O)NC4=O)C5=O)cc3OC)nc2N1C1CCCC1 (stereo partly shown) [UB-180662]
21 | > 1000 | Cc1ncsc1-c1ccc(CNC(=O)[C@@H]2C[C@@H](O)CN2C(=O)[C@@H](NC(=O)CCOCCOCCNC(=O)[C@]2(Cc3cccc(Nc4nccs4)n3)CC[C@@H](Oc3cccc(Cl)c3F)CC2)C(C)(C)C)cc1 [UB-180599]

Row | EC50 [nM] | Structure (SMILES)
22 | > 1000 | Cc1ncsc1-c1ccc(CNC(=O)[C@@H]2C[C@@H](O)CN2C(=O)[C@@H](NC(=O)COCCOCCOCCOCCNC(=O)c2ccc(Nc3ncc4c(n3)-c3ccc(Cl)cc3C(c3c(F)cccc3F)=NC4)cc2)C(C)(C)C)cc1 [UB-180527]
23 | 100 to 1000 | COc1cc(C(=O)NCCOCCNCCCCCCC(=O)Nc2cccc3c2CN(C2CCC(=O)NC2=O)C3=O)ccc1Nc1ncc2c(n1)N(Cc1ccc(Br)cc1)CC(C)(C)C(=O)N2C (stereo not shown) [UB-180672]
24 | 100 to 1000 | CN(CCOCCOCCOCCNC(=O)[C@]1(Cc2cccc(Nc3nccs3)n2)CC[C@@H](Oc2cccc(Cl)c2F)CC1)CC(=O)Nc1cccc2c1CN(C1CCC(=O)NC1=O)C2=O (stereo partly shown) [UB-180836]
25 | 10 to 100 | CC[C@@H]1C(=O)N(C)c2cnc(Nc3ccc(C(=O)NCCNCCOCCOCCOCCC(=O)Nc4cccc5c4CN(C4CCC(=O)NC4=O)C5=O)cc3OC)nc2N1C1CCCC1 (stereo partly shown) [UB-180820]
26 | 10 to 100 | CC[C@@H]1C(=O)N(C)c2cnc(Nc3ccc(C(=O)NCCNCCCC(=O)Nc4cccc5c4CN(C4CCC(=O)NC4=O)C5=O)cc3OC)nc2N1C1CCCC1 (stereo partly shown) [UB-180689]
27 | 10 to 100 | CC[C@@H]1C(=O)N(C)c2cnc(Nc3ccc(C(=O)NC4CCN(CCOCCN(CC(=O)Nc5cccc6c5CN(C5CCC(=O)NC5=O)C6=O)C(C)=O)CC4)cc3OC)nc2N1C1CCCC1 (stereo partly shown) [UB-180835]
28 | 10 to 100 | CC[C@@H]1C(=O)N(C)c2cnc(Nc3ccc(C(=O)NCCC(=O)N[C@H](C(=O)N4C[C@H](O)C[C@H]4C(=O)NCc4ccc(-c5scnc5C)cc4)C(C)(C)C)cc3OC)nc2N1C1CCCC1 [UB-180622]
29 | 10 to 100 | CC[C@@H]1C(=O)N(C)c2cnc(Nc3ccc(C(=O)NCCOCCNCCCCCCCC(=O)Nc4cccc5c4CN(C4CCC(=O)NC4=O)C5=O)cc3OC)nc2N1Cc1ccc(Br)cc1 (stereo partly shown) [UB-180652]
30 | > 1000 | Cc1ncsc1-c1ccc(CNC(=O)[C@@H]2C[C@@H](O)CN2C(=O)[C@@H](NC(=O)COCCNC(=O)[C@]2(Cc3cccc(Nc4nccs4)n3)CC[C@@H](Oc3cccc(Cl)c3F)CC2)C(C)(C)C)cc1 [UB-180578]
31 | 100 to 1000 | O=C1CCC(N2Cc3c(NC(=O)CCCCCNCCOCCOCCOCCNC(=O)c4ccc(Nc5ncc6c(n5)-c5ccc(Cl)cc5C(c5c(F)cccc5F)=NC6)cc4)cccc3C2=O)C(=O)N1 (stereo not shown) [UB-180770]
32 | 100 to 1000 | O=C1CCC(N2Cc3c(NC(=O)COCCNCCn4cc(CNC(=O)[C@]5(Cc6cccc(Nc7nccs7)n6)CC[C@@H](Oc6cccc(Cl)c6F)CC5)nn4)cccc3C2=O)C(=O)N1 (stereo partly shown) [UB-180744]
33 | 100 to 1000 | CC[C@@H]1c2c(C#N)ncn2-c2cnc(Nc3ccc(C(=O)NCC(=O)N[C@H](C(=O)N4C[C@H](O)C[C@H]4C(=O)NCc4ccc(-c5scnc5C)cc4)C(C)(C)C)cc3OC)nc2N1C1CCCC1 [UB-180592]
34 | 100 to 1000 | O=C1CCC(N2Cc3c(NC(=O)CNCCOCCn4cc(CNC(=O)[C@]5(Cc6cccc(Nc7nccs7)n6)CC[C@@H](Oc6cccc(Cl)c6F)CC5)nn4)cccc3C2=O)C(=O)N1 (stereo partly shown) [UB-180742]
35 | > 1000 | CC[C@@H]1C(=O)N(C)c2cnc(Nc3ccc(C(=O)NCCOCCOCCNCCC(=O)N[C@H](C(=O)N4C[C@H](O)C[C@H]4C(=O)NCc4ccc(-c5scnc5C)cc4)C(C)(C)C)cc3OC)nc2N1C1CCCC1 [UB-180619]
36 | > 1000 | Cc1ncsc1-c1ccc(CNC(=O)[C@@H]2C[C@@H](O)CN2C(=O)[C@@H](NC(=O)COCCNCCn2cc(COCCOCCNC(=O)c3ccc(Nc4ncc5c(n4)-c4ccc(Cl)cc4C(c4c(F)cccc4F)=NC5)cc3)nn2)C(C)(C)C)cc1 [UB-180788]
37 | 100 to 1000 | O=C1CCC(N2Cc3c(NC(=O)CCCNCCOCCOCCOCCNC(=O)c4ccc(Nc5ncc6c(n5)-c5ccc(Cl)cc5C(c5c(F)cccc5F)=NC6)cc4)cccc3C2=O)C(=O)N1 (stereo not shown) [UB-180773]
38 | 100 to 1000 | Cc1ncsc1-c1ccc(CNC(=O)[C@@H]2C[C@@H](O)CN2C(=O)[C@@H](NC(=O)CCNC(=O)c2ccc(Nc3ncc4c(n3)-c3ccc(Cl)cc3C(c3c(F)cccc3F)=NC4)cc2)C(C)(C)C)cc1 [UB-180613]
39 | 100 to 1000 | O=C1CCC(N2Cc3c(NC(=O)CCNCCOCCOCCOCCNC(=O)c4ccc(Nc5ncc6c(n5)-c5ccc(Cl)cc5C(c5c(F)cccc5F)=NC6)cc4)cccc3C2=O)C(=O)N1 (stereo not shown) [UB-180728]
40 | 100 to 1000 | CC[C@@H]1C(=O)N(C)c2cnc(Nc3ccc(C(=O)NCCOCCNCCCCCCC(=O)Nc4cccc5c4CN(C4CCC(=O)NC4=O)C5=O)cc3OC)nc2N1Cc1ccc(Br)cc1 (stereo partly shown) [UB-180653]
41 | > 1000 | O=C1CCC(N2Cc3c(NC(=O)COCCOCCOCCNCCNC(=O)c4ccc(Nc5ncc6c(n5)-c5ccc(Cl)cc5C(c5c(F)cccc5F)=NC6)cc4)cccc3C2=O)C(=O)N1 (stereo not shown) [UB-180794]

Same assay, conditions: MV4;11 cells

Row | EC50 [nM] | Structure (SMILES)
42 | 100 to 1000 | O=C1CCC(N2Cc3c(NC(=O)CCNCCOCCn4cc(CNC(=O)c5ccc(Nc6ncc7c(n6)-c6ccc(Cl)cc6C(c6c(F)cccc6F)=NC7)cc5)nn4)cccc3C2=O)C(=O)N1 (stereo not shown) [UB-180738]
43 | 100 to 1000 | O=C1CCC(N2Cc3c(NC(=O)CCNCCOCCn4cc(CNC(=O)[C@]5(Cc6cccc(Nc7nccs7)n6)CC[C@@H](Oc6cccc(Cl)c6F)CC5)nn4)cccc3C2=O)C(=O)N1 (stereo partly shown) [UB-180749]

Reference: patent US20210369853A1, “TARGETED PROTEASE DEGRADATION PLATFORM” (EUBULUS BIOTHERAPEUTICS INC., priority 2018, published 2021)
